According to publication PMC9430770 (Microbiology Spectrum, 2022):

What was measured:
[1] = target: mutant Eno1 (D263A, S269A, and K273A) (Candida albicans, UniProt P30575, D263A/K273A/S269A); test: SPR binding of BE to mutant Eno1
Description: SPR, surface plasmon resonance; RU, response unit.
The benzene ring with hydroxyl group can form a cation-π interaction with K273 (Fig. 6C). To confirm that D263, S269, and K273 play crucial roles in interacting with BE, we have mutated these three amino acids (D263A, S269A, and K273A) in CaEno1.

[2] = target: T1, recombinant C. albicans Eno1 (Candida albicans, UniProt P30575); test: Target protein competition experiment between BE and label-BE (TAMRA-N3 reporter); format: binding; conditions: preincubation with 100 μM BE, then 10 μM label-BE; E. coli lysates with recombinant CaEno1
T1 construct: the full-length ENO1 gene from C. albicans was cloned into the pET-21a (+) plasmid; made in house; host or cells: E. coli BL21(DE3)
Description: FIG 2 Eno1 is a target of BE. (A) Schematic diagram of synthesis label-BE. Label-BE is synthesized by intermediate TPD-10a with benzyl bromide structure and triacetylated BE. (B) The molecular structure of label-BE. Label-BE contains a trifluoromethylphenyl diazo heterocyclic propylene group (marked by a red dotted line) as a photoaffinity group to enhance the binding of label-BE to its target proteins and an alkyne group (marked by a blue dotted line) connected with an azide group (from the TAMRA-N3 or biotin-N3) by a copper-catalyzed azide-alkyne cycloaddition. (C) The molecular structures of TAMRA-N3 and biotin-N3. […] After separation of SDS-PAGE, label-BE-targeted proteins were visualized by in-gel fluorescence scanning. The three fluorescent bands in lane 3 (indicated by red triangles) were cut out and pooled and then analyzed by LC-MS/MS. […] The brighter band in lane 3 (indicated by red triangle) was then cut out and analyzed by LC-MS/MS. […]
Target protein competition experiments between BE and label-BE were performed as described previously ([51], [52]). […] The bands with changes in fluorescence brightness were then cut off and analyzed by LC-MS/MS; for labeling label-BE with biotin-N3, protein solutions were enriched with streptavidin-conjugated beads. […]

Sequence of mutant Eno1 (D263A, S269A, and K273A) (P30575 whole entry D263A/S269A/K273A): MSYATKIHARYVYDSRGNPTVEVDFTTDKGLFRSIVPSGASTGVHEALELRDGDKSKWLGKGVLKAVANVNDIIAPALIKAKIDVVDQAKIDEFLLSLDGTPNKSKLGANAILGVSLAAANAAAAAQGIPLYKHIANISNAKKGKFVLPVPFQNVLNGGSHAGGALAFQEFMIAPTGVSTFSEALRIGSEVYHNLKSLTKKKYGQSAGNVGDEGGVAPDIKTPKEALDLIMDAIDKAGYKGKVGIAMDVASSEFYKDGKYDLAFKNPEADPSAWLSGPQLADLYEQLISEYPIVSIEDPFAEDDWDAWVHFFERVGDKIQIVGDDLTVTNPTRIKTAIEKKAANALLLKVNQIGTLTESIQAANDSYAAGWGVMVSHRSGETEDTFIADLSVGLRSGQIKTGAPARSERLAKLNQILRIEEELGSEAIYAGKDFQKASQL
T1 sequence (P30575 whole entry): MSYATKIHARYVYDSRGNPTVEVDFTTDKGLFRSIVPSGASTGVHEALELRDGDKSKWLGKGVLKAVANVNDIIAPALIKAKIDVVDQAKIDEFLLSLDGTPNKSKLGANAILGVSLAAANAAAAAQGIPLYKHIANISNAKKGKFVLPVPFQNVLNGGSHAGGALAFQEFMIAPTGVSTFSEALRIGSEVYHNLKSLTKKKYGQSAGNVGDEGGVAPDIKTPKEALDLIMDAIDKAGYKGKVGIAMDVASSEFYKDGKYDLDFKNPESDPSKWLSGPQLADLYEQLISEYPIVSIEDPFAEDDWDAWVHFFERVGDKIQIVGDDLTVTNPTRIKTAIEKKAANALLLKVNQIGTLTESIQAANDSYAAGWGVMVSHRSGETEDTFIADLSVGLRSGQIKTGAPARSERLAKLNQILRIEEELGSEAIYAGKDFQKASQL

With `O=c1cc(-c2ccccc2)oc2cc(O)c(O)c(O)c12` [BE, Baicalein] the “binding detected by SPR analysis” value [1] was “no binding” and the “competition with label-BE for the CaEno1 band (in-gel fluorescence)” value [2] was “remarkably reduce the fluorescent brightness”.
